One data set has as its system MCF-7. The data set can be described thus: Antiproliferative activity, MTT assay, MCF-7. Conditions: for IC50: Homo sapiens, MCF7, read-out: Cytotoxicity IC50 MCF-7. The source says: (§1) The compounds were screened on breast (MCF-7), liver (HepG2), and colorectal (HCT-116) cancer cells, obtained from American Type culture Collection (ATCC); 0.1% of DMSO was used as a vehicle control.

The next data set concerns HCT-116. The data set can be described thus: Antiproliferative activity, MTT assay, HCT-116. Conditions: Homo sapiens, HCT-116, read-out: Cytotoxicity IC50 HCT-116.
Source text: as §1
Background: Tetrazolium dyes change colour on reduction, which living cells bring about.

In a further data set the test system is HepG2. Kind of data set: Antiproliferative activity, MTT assay, HepG2. Conditions: Homo sapiens, HepG2, read-out: Cytotoxicity IC50 HepG2.
Source text: as §1

In the next data set the test system is C. albicans (ATCC 10231). The data set can be described thus: Antifungal activity, agar well zone of inhibition, C. albicans. Conditions: 10 μL of 10 mg/mL in 50% DMSO per well, overnight 37 °C, --- = no zone of inhibition; for zone of inhibition at 10000 µg/mL: Candida albicans, ATCC10231. It counts as cell-based, Candida albicans. The procedure: (§2) The antimicrobial activity of the final compounds was performed by reported methods.The bacterial strains, E. coli (Gram negative), S. aureus (Gram positive), and fungi, Candida albicans, were used for the study. Luria broth Agar and Sabouraud Dextrose Agar were prepared into a petri dish using 25 mL of autoclaved media; 100 μL of diluted broth of freshly prepared E. coli, S. aureus, and C. albicans were spread on Luria Broth Agar and Sabouraud Agar plates, respectively. Then, 7 wells of 50 μL capacity were punched on each plate. Samples 5–18 (10 μL of 10 mg/mL standard prepared in 50% DMSO) were placed in each plate’s well in different plate sets. All the plates were incubated for overnight at 37 °C in an incubator shaker. The inhibition zone was calculated in triplicate.

The target of data set [1] is Thymidylate synthase (TS) (Homo sapiens, UniProt P04818). Kind of data set: Thymidylate synthase (TS) enzymatic assay.
A further data set concerns E. coli (ATCC 31218). Kind of data set: Antimicrobial activity, agar well zone of inhibition, E. coli. In kind it is cell-based, Escherichia coli. Conditions: 10 μL of 10 mg/mL in 50% DMSO per well, overnight 37 °C, --- = no zone of inhibition; for zone of inhibition at 10000 µg/mL: Escherichia coli, ATCC31218. The procedure: as §2
In a further data set the test system is S. aureus (ATCC 29213). The data set can be described thus: Antimicrobial activity, agar well zone of inhibition, S. aureus. In kind it is cell-based, Staphylococcus aureus. Conditions: 10 μL of 10 mg/mL in 50% DMSO per well, overnight 37 °C, --- = no zone of inhibition; for zone of inhibition at 10000 µg/mL: Staphylococcus aureus, ATCC29213. The procedure: as §2

In general, IC50 refers to the concentration that gives 50% inhibition. The melting point is the temperature of the solid-liquid transition. By zone of inhibition is commonly meant the extent of the growth-free halo in a diffusion test. High values mean a stronger effect on the plate, low ones a weaker effect on the plate.

Thymidylate synthase (TS), sequence (P04818 whole entry): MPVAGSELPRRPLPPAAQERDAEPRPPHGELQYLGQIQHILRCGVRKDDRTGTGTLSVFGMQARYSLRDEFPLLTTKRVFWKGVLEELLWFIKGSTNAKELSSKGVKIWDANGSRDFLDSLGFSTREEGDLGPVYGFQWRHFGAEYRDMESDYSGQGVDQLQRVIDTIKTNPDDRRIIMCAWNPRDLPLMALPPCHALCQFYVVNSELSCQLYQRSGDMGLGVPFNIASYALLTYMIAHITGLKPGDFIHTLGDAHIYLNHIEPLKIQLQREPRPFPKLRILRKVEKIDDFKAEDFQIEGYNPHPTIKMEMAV

In the case of `Cc1ccc(C(C)C)c(OCc2nnc(S(=O)(=O)Cc3cn(-c4cccc(Br)c4)nn3)o2)c1` [Compound 18, 4-((5-((2-isopropyl-5-methylphenoxy)methyl)-1,3,4-oxadiazol-2-ylsulfonyl)methyl)-1-(3-bromophenyl)-1H-1,2,3-triazole], the melting point was 98 to 100 °C. In the data set with MCF-7, the IC50 is 98.2 µM. The half-maximal inhibitory concentration (IC50) in the data set with HCT-116 turned out to be 118 µM. In addition, in the data set with HepG2, the IC50 came to 95.7 µM.

The molecule `OC(Cn1cncn1)(Cn1cncn1)c1ccc(F)cc1F` [Fluconazole, reference compound] gave a zone of inhibition at 10000 µg/mL in the data set on C. albicans (ATCC 10231) of 16 ± 0.6 mm.

Regarding `COc1cccc2c1C(=O)c1c(O)c3c(c(O)c1C2=O)C[C@@](O)(C(=O)CO)C[C@@H]3O[C@H]1C[C@H](N)[C@H](O)[C@H](C)O1` [Dox, doxorubicin, reference compound], the IC50 was found to be 1.2 µM in the data set with MCF-7, 2.5 µM in the data set on HCT-116 and 1.8 µM in the data set on HepG2.

With `Cc1ccc(C(C)C)c(OCc2nnc(SCc3cn(-c4ccccc4Cl)nn3)o2)c1` [Compound 10, 4-((5-((2-isopropyl-5-methylphenoxy)methyl)-1,3,4-oxadiazol-2-ylthio)methyl)-1-(2-chlorophenyl)-1H-1,2,3-triazole], the melting point is 90 to 92 °C. In the data set on MCF-7 ((IC50 18.74 μM)), the “times active relative to 5-florouracil, MCF-7” value came to 15 times. Also, the concentration for half-maximal inhibition (IC50) in the data set with MCF-7 was 1.3 µM. The IC50 with HCT-116 amounted to 3.8 µM. Also, the concentration for half-maximal inhibition (IC50) in the data set on HepG2 was 2.5 µM. Further, it took 2.18 ± 1.7 µM to reach half-maximal inhibition in data set [1] (IC50).

For the molecule `O=c1[nH]cc(F)c(=O)[nH]1` [Compound 5-FU, 5-fluorouracil, reference compound], the IC50 in the data set on MCF-7 was 18.7 µM; in the data set with HCT-116, 30.7 µM; with HepG2, 28.7 µM.

In turn, `Cc1ccc(C(C)C)c(OCc2nnc(SCc3cn(-c4ccc(Cl)cc4Cl)nn3)o2)c1` [Compound 12, 4-((5-((2-isopropyl-5-methylphenoxy)methyl)-1,3,4-oxadiazol-2-ylthio)methyl)-1-(2,4-dichlorophenyl)-1H-1,2,3-triazole] had a melting point of 84 to 86 °C. The half-maximal inhibitory concentration (IC50) in the data set on MCF-7 was determined as 59.4 µM. Also, the half-inhibitory concentration (IC50) in the data set on HCT-116 amounted to 47.3 µM. Also, in the data set with HepG2, the concentration for half-maximal inhibition (IC50) is 40.6 µM. In the data set with E. coli (ATCC 31218), the “zone of inhibition E. coli” value was determined as 10 ± 0.38 mm and the zone of inhibition at 10000 µg/mL is 10 mm. In addition, in the data set on C. albicans (ATCC 10231), the “zone of inhibition C. albicans” value came to 12 ± 0.036 mm and the zone of inhibition at 10000 µg/mL was determined as 12 mm.

Molecule `Cc1ccc(C(C)C)c(OCc2nnc(SCc3cn(-c4ccc(F)cc4F)nn3)o2)c1` [Compound 16, 4-((5-((2-isopropyl-5-methylphenoxy)methyl)-1,3,4-oxadiazol-2-ylthio)methyl)-1-(2,4-diflorophenyl)-1H-1,2,3-triazole] showed a melting point of 130 to 132 °C. Moreover, the IC50 in the data set on MCF-7 turned out to be 34.5 µM. The IC50 with HCT-116 was 56.2 µM. Further, the half-inhibitory concentration (IC50) in the data set with HepG2 is 58.3 µM. Further, in the data set with E. coli (ATCC 31218), the “zone of inhibition E. coli” value amounted to 14 ± 0.34 mm and the zone of inhibition at 10000 µg/mL was 14 mm. In addition, in the data set on S. aureus (ATCC 29213), the “zone of inhibition S. aureus” value turned out to be 15±0.38 mm and the zone of inhibition at 10000 µg/mL is 15 mm.

With `Cc1ccc(C(C)C)c(OCc2nnc(SCc3cn(-c4cccc(C(=O)O)c4)nn3)o2)c1` [Compound 8, 3-(4-((5-((2-isopropyl-5-methylphenoxy)methyl)-1,3,4-oxadiazol-2-ylthio)methyl)-1H-1,2,3-triazol-1-yl)benzoic acid], the melting point lay within 166 to 168 °C. Also, the IC50 with MCF-7 turned out to be 3.9 µM. In the data set on HCT-116, the IC50 came out at 5.8 µM. Further, the IC50 with HepG2 came out at 5.3 µM. Also, in the data set with S. aureus (ATCC 29213), the “zone of inhibition S. aureus” value was determined as 10 ± 0.40 mm and the zone of inhibition at 10000 µg/mL amounted to 10 mm. Inhibition in data set [1] was half-maximal at 3.98 ± 1.1 µM (IC50).

Take `Cc1ccc(C(C)C)c(OCc2nnc(SCc3cn(-c4cccc(Br)c4)nn3)o2)c1` [Compound 14, 4-((5-((2-isopropyl-5-methylphenoxy)methyl)-1,3,4-oxadiazol-2-ylthio)methyl)-1-(3-bromophenyl)-1H-1,2,3-triazole]: the melting point fell in the range of 72 to 74 °C. Moreover, the IC50 with MCF-7 was determined as 41.8 µM. Also, the IC50 with HCT-116 was found to be 32.8 µM. Also, in the data set on HepG2, the IC50 stood at 23.7 µM. In the data set with E. coli (ATCC 31218), the “zone of inhibition E. coli” value is 9 ± 0.32 mm and the zone of inhibition at 10000 µg/mL came out at 9 mm.

With `Cc1ccc(C(C)C)c(OCc2nnc(SCc3cn(-c4cccc(Cl)c4)nn3)o2)c1` [Compound 11, 4-((5-((2-isopropyl-5-methylphenoxy)methyl)-1,3,4-oxadiazol-2-ylthio)methyl)-1-(3-chlorophenyl)-1H-1,2,3-triazole], the melting point was in the range of 92 to 94 °C. Further, in the data set with MCF-7, the half-maximal inhibitory concentration (IC50) came to 4.9 µM. Moreover, the concentration for half-maximal inhibition (IC50) with HCT-116 came out at 16.3 µM. Also, the IC50 in the data set with HepG2 came to 18.6 µM. The same molecule had an IC50 in data set [1] of 4.24 ± 0.8 µM.

Turning to `Cc1ccc(C(C)C)c(OCc2nnc(SCc3cn(-c4ccc(Br)cc4)nn3)o2)c1` [Compound 13, 4-((5-((2-isopropyl-5-methylphenoxy)methyl)-1,3,4-oxadiazol-2-ylthio)methyl)-1-(4-bromophenyl)-1H-1,2,3-triazole], the melting point lay within 114 to 116 °C. Besides, in the data set with MCF-7, the IC50 amounted to 65.3 µM. Besides, the IC50 in the data set with HCT-116 came to 78.7 µM. Further, in the data set with HepG2, the 50% inhibitory concentration (IC50) was found to be 69.4 µM. For the same molecule, in the data set with E. coli (ATCC 31218), the “zone of inhibition E. coli” value is 11 ± 0.34 mm and the zone of inhibition at 10000 µg/mL was determined as 11 mm.

In turn, `Cc1ccc(C(C)C)c(OCc2nnc(SCc3cn(C(=O)Nc4ccccc4C)nn3)o2)c1` [Compound 17, 4-((5-((2-isopropyl-5-methylphenoxy)methyl)-1,3,4-oxadiazol-2-ylthio)methyl)-N-o-tolyl-1H-1,2,3-triazole-1-carboxamide] registered a melting point of 124 to 126 °C. Besides, the IC50 with MCF-7 is 9.39 µM. The IC50 in the data set on HCT-116 amounted to 17.3 µM. For the same molecule, the IC50 with HepG2 turned out to be 39.1 µM. For the same molecule, in the data set with E. coli (ATCC 31218), the “zone of inhibition E. coli” value came to 12 ± 0.32 mm and the zone of inhibition at 10000 µg/mL was found to be 12 mm. Besides, in the data set with S. aureus (ATCC 29213), the “zone of inhibition S. aureus” value was found to be 12 ± 0.34 mm and the zone of inhibition at 10000 µg/mL came out at 12 mm.

`Cc1ccc(C(C)C)c(OCc2nnc(SCc3cn(-c4ccccc4)nn3)o2)c1` [Compound 6, 4-((5-((2-isopropyl-5-methylphenoxy)methyl)-1,3,4-oxadiazol-2-ylthio)methyl)-1-phenyl-1H-1,2,3-triazole]: the melting point fell in the range of 88 to 90 °C. In addition, the half-inhibitory concentration (IC50) in the data set on MCF-7 is 22.5 µM. Besides, the IC50 with HCT-116 was found to be 36.5 µM. In the data set on HepG2, the IC50 is 41.6 µM. In the data set on E. coli (ATCC 31218), the “zone of inhibition E. coli” value was 14 ± 0.38 mm and the zone of inhibition at 10000 µg/mL is 14 mm. In the data set on S. aureus (ATCC 29213), the “zone of inhibition S. aureus” value was found to be 10 ± 0.40 mm and the zone of inhibition at 10000 µg/mL came to 10 mm.

In the case of `C#CCSc1nnc(COc2cc(C)ccc2C(C)C)o1` [Compound 5, 2-((2-isopropyl-5-methylphenoxy)methyl)-5-(prop-2-ynylthio)-1,3,4-oxadiazole], the melting point lay in the range of 58 to 60 °C. For the same molecule, in the data set with E. coli (ATCC 31218), the “zone of inhibition E. coli” value amounted to 12 ± 0.32 mm and the zone of inhibition at 10000 µg/mL stood at 12 mm. In the data set with S. aureus (ATCC 29213), the “zone of inhibition S. aureus” value is reported as 9 ± 0.30 mm and the zone of inhibition at 10000 µg/mL turned out to be 9 mm. Besides, in the data set with C. albicans (ATCC 10231), the “zone of inhibition C. albicans” value is 10 ± 0.32 mm and the zone of inhibition at 10000 µg/mL is 10 mm.

`Cc1ccc(C(C)C)c(OCc2nnc(SCc3cn(-c4ccc(F)cc4)nn3)o2)c1` [Compound 15, 4-((5-((2-isopropyl-5-methylphenoxy)methyl)-1,3,4-oxadiazol-2-ylthio)methyl)-1-(4-florophenyl)-1H-1,2,3-triazole] showed a melting point of 118 to 120 °C. Further, the IC50 with MCF-7 is 23.2 µM. Moreover, in the data set with HCT-116, the IC50 is 31.4 µM. The concentration for half-maximal inhibition (IC50) in the data set with HepG2 amounted to 49.2 µM.

In the case of `Nc1nc2[nH]cc(CCc3ccc(C(=O)N[C@@H](CCC(=O)O)C(=O)O)cc3)c2c(=O)[nH]1` [Pemetrexed, reference compound], in data set [1], the half-inhibitory concentration (IC50) came to 7.26 ± 1.1 µM.

In the data set on S. aureus (ATCC 29213), `CO[C@@H]1[C@@H](OC(N)=O)[C@@H](O)[C@H](Oc2ccc3c(O)c(NC(=O)c4ccc(O)c(CC=C(C)C)c4)c(=O)oc3c2C)OC1(C)C` [Novobiocin, reference compound] came in with a zone of inhibition at 10000 µg/mL of 10 ± 0.24 mm.

Values taken from PMC8468421, “Synthesis and Biological Evaluation of 1,2,3-Triazole Tethered Thymol-1,3,4-Oxadiazole Derivatives as Anticancer and Antimicrobial Agents” (Pharmaceuticals, 2021).
